Assay results published in US10266565B2, “Peptide mimetic ligands of polo-like kinase 1 polo box domain and methods of use” (The United States of America, as represented by the …, priority 2011, dated 2019).

Columns and labels:
[1] = target: Plk1 PBD (Homo sapiens, UniProt P53350); assay: ELISA-based PBD-binding inhibition assay (immobilized biotinylated p-T78 peptide, HA-EGFP-Plk1 lysates); settings: relative to the comparator named in the sentence
Method: The wells were washed once with PBS plus 0.05% Tween20 (PBST), and incubated with 200 μl of PBS plus 1% BSA (blocking buffer) for 1 h to prevent non-specific binding. […] Following the incubation, ELISA plates were washed 4 times with PBST. To detect bound HA-EGFP-Plk1, the plates were probed for 2 h with 100 μl/well of anti-HA antibody at a concentration of 0.5 μg/ml in blocking buffer and then washed 5 times. The plates were further probed for 1 h with 100 μl/well of HRP-conjugated secondary antibody (GE Healthcare, Piscataway, N.J.) at a 1:1,000 dilution in blocking buffer. The plates were washed 5 times with PBST and incubated with 100 μl/well of 3,3′,5,5′-tetramethylbenzidine (TMB) solution (Sigma, St. Louis, Mo.) as a substrate until a desired absorbance was reached. […] The optical density (O.D.) was measured at 450 nm by using an ELISA plate reader (Molecular Devices, Sunnyvale, Calif.).
A biotinylated p-T78 peptide was first diluted with IX coating solution (KPL Inc., Gaithersburg, Md.) to a final concentration of 0.3 μM, and then 100 μL of the resulting solution was immobilized onto a 96-well streptavidin-coated plate (Nalgene Nunc, Rochester, N.Y.). […] The plates were washed 5 times with PBST and incubated with 100 μL/well of 3,3′,5,5′-tetramethylbenzidine (TMB) substrate solution (Sigma, St. Louis, Mo.) until a desired absorbance was achieved. […]

[2] = target: T1, Plk1 (Homo sapiens, UniProt P53350); assay: Peptide pull-down assay with bead-immobilized peptides, Plk1; type: binding; settings: mitotic cell lysates
T1 construct: we used total lysates prepared from mitotic HeLa cells; endogenous in cells; host or cells: mitotic (nocodazole-arrested) HeLa cells
T1 sequence (P53350 2-603): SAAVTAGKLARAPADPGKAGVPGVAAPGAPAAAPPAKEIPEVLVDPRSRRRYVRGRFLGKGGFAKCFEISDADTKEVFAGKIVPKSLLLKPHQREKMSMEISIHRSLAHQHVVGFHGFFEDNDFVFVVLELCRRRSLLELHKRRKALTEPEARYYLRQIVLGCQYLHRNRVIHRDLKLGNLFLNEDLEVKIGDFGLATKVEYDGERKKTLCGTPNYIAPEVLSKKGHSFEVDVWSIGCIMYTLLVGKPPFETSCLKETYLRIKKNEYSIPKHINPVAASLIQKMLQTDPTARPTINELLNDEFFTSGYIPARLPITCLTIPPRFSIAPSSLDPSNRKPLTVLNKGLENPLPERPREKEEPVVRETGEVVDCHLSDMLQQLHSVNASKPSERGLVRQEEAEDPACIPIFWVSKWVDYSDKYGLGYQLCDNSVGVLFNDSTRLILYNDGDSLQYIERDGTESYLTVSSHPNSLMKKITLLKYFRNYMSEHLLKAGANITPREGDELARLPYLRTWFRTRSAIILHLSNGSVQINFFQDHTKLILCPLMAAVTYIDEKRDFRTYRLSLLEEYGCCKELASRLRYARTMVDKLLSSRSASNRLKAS
Method: For Plk1 pull-down assays with immobilized peptides, we used total lysates prepared from mitotic HeLa cells. […] Cells treated with 200 ng/ml of nocodazole for 16 h were lysed in TBSN buffer {20 mM Tris-Cl (pH8.0), 150 mM NaCl, 0.5% NP-40, 5 mM EGTA, 1.5 mM EDTA, 0.5 mM Na3VO4, 20 mM p-nitrophenyl phosphate, and protease inhibitor cocktail (Roche, Nutley, N.J.)}, and then clarified by centrifugation at 15,000×g for 20 min at 4° C. The resulting lysates were incubated with bead-immobilized peptides (40 μM per binding) for 2 h, precipitated, washed, and then boiled in sodium dodecyl sulfate (SDS) sample buffer to elute the associated proteins. Samples were separated by 10% SDS-polyacrylamide gel electrophoresis (PAGE), and then either stained with silver or transferred to PVDF membrane for immunoblotting analysis with anti-Plk1 antibody using the enhanced chemiluminescence (ECL) detection system (Pierce). […]

[3] = target: Plk1 PBD-p-Cdc25C interaction (Homo sapiens, UniProt P53350); assay: Competition of the PBD-p-Cdc25C interaction in mitotic HeLa lysates; type: binding; settings: GST-PBD
Plk1 PBD-p-Cdc25C interaction, sequence (P53350 326-603 limits assumed): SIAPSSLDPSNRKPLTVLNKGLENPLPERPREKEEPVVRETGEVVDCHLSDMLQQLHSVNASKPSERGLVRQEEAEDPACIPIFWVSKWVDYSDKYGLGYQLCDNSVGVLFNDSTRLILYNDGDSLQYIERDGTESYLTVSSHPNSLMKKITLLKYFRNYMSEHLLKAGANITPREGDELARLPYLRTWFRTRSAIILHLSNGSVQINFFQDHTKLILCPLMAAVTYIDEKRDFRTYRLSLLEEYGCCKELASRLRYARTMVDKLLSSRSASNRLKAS
Method: For p-Cdc25C pull-down assays, either bead-bound GST-PBD or the corresponding GST-PBD(H538A K540M) mutant was incubated with mitotic HeLa lysates in TBSN buffer supplemented with 2 mM DTT. To test the ability of the indicated peptides to compete the PBD-p-Cdc25C interaction, lysates were pre-incubated with GST-PBD for 1.5 h prior to the addition of the indicated peptides. Lysates were then incubated for additional 1.5 h, washed in the binding buffer, and then analyzed. For competition of the interaction between p-Cdc25C and endogenous Plk1, mitotic lysates were prepared in TBSN and incubated with the indicated peptides for 1 h before subjecting to immunoprecipitation with anti-Plk1 antibody.

[4] = target: T2, Plk2 PBD (Homo sapiens, UniProt Q9NYY3); assay: Isothermal titration calorimetry with recombinant Plk2 PBD
T2 sequence (Q9NYY3 373-685): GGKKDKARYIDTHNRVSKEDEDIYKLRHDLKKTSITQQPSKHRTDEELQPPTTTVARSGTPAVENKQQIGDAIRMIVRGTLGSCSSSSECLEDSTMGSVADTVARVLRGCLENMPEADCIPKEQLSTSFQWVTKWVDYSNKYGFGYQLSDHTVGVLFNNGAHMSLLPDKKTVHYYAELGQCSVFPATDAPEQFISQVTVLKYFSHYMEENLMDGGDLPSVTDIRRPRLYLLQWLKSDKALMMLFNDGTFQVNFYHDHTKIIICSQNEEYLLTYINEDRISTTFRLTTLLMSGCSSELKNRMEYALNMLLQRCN
Method: The calorimetric titrations were carried out using purified recombinant PBDs (for Plk1 and Plk2) from bacterial cells and the indicated peptides.
The calorimetric titrations were performed on a VP-ITC titration calorimeter (Microcal, Inc., Northampton, Mass.). In a typical experiment, 5 l aliquots of a phosphorylated peptide were injected from a 250 l syringe into a rapidly mixing (300 rpm) solution of Plk1 PBD (cell volume=1.3472 ml). Control experiments involved injecting identical amounts of the peptide solution into buffer without Plk1 PBD. […] Titrations were carried out at 25° C. in 20 mM Tris-Cl (pH 7.5), 100 mM NaCl, 3 mM DTT. The isotherms, corrected for dilution/buffer effects, were fit using the Origin ITC Analysis software according to manufacturer's protocols. A nonlinear least-square method was used to fit the titration data and to calculate the errors. Consistent with the structural data, a 1:1 stoichiometry was assumed and the data were fit to a one-site binding model. From the binding curve, values for enthalpy and binding affinity were extracted. Thermodynamic parameters were calculated using ΔG=−RTlnKa, ΔG=ΔH−TΔS.
Full length PBD was dialyzed against a low salt buffer (20 mM Tris-Cl, pH 7.5, 100 mM NaCl, 3 mM DTT), and used in calorimetry experiments.

Plk1 PBD, sequence (P53350 whole entry): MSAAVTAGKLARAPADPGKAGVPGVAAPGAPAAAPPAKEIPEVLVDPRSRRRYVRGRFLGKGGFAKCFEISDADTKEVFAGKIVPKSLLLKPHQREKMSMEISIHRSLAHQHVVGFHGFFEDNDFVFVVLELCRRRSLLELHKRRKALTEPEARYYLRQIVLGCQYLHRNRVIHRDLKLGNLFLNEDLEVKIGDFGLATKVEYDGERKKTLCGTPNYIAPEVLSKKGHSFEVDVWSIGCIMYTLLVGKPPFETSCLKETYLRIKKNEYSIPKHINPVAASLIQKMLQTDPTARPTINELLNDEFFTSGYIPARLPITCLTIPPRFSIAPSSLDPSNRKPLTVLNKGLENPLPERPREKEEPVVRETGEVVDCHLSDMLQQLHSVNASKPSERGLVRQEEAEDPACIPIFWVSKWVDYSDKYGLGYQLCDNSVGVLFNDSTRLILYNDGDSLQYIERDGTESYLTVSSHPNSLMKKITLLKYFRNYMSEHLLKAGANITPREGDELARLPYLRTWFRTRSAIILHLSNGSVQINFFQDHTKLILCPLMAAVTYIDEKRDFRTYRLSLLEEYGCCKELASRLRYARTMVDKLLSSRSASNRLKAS

interaction with Plk2 PBD by calorimetry, in words [4]: virtually no interactions with Plk2
SMILES: CC(=O)N[C@@H](CC(C)C)C(=O)N[C@@H](Cc1c[nH]cn1)C(=O)N[C@@H](CO)C(=O)N[C@H](C(=O)N[C@@H](C)C(N)=O)[C@@H](C)OP(=O)(O)O [LHSpTA]
Plk1 PBD-binding affinity / inhibition, in words [1]: inhibited the PBD at a moderately reduced level | Plk1 binding / precipitation in pull-down, in words [2]: bound to Plk1 almost as efficiently as PLHSpT | disruption of the pre-formed PBD-p-Cdc25C complex [3]: disrupted the pre-formed PBD-p-Cdc25C complex nearly as efficiently as PLHSpT
